In patent US20080275032A1, “Pyridazinone compounds” (priority 2006, published 2008):

Target: HCV NS5B polymerase (Hepatitis C virus genotype 1b, UniProt P26663)
Experiment: biochemical
Conditions: HCV polymerase inhibition, 50 nM enzyme, 2 h at room temperature, FlashPlate [α-33P]GTP incorporation
Procedure: NS5B Polymerase Inhibition Assay (IC50)
Compounds were tested for HCV polymerase inhibition. Assays were performed in a 96-well streptavidin-coated FlashPlate using 50 nM enzyme, 0.5 μCi of [α-^33P]GTP, 0.6 μM GTP, and 50 nM 5′biotinylated oligo (rG13)/poly rC in 20 mM Tris-HCl, pH 7.5, 5 mM MgCl2, 20 mM NaCl, 5 mM dithiothreitol, and 0.1 g/L BSA. The reaction was stopped by aspiration after 2 h at room temperature and the plate was washed several times. After washing, incorporated radioactivity was counted using a Microbeta scintillation counter.

HCV NS5B polymerase, sequence (P26663 2420-3010): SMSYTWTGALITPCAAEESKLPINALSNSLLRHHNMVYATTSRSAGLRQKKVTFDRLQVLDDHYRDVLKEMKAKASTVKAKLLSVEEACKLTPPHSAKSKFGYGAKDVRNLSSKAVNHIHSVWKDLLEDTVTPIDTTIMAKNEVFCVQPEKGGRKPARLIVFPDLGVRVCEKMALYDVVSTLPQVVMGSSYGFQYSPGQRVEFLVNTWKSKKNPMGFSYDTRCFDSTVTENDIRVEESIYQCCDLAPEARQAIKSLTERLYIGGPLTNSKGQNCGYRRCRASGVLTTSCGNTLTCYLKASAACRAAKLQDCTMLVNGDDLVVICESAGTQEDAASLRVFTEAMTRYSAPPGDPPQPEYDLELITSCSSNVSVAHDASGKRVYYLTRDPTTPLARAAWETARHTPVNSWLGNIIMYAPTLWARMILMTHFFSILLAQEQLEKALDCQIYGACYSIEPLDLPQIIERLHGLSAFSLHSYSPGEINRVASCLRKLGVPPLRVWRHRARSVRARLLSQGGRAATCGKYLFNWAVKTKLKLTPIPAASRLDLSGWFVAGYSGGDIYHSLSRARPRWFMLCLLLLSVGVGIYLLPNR

Row | IC50 [nM] | Structure (SMILES)
1 | < 100 | CS(=O)(=O)Nc1ccc2c(c1)S(=O)(=O)N=C(c1c(O)c(-c3cccs3)nn(Cc3ccc(F)cc3)c1=O)N2 [N-{3-[2-(4-Fluoro-benzyl)-5-hydroxy-3-oxo-6-thiophen-2-yl-2,3-dihydro-pyridazin-4-yl]-1,1-dioxo-1,2-dihydro-1λ^6-benzo[1,2,4]thiadiazin-7-yl}-methanesulfonamide]
2 | 1000 to 10000 | CN1C(c2c(O)c(-c3cccs3)nn(Cc3ccc(F)cc3)c2=O)=NS(=O)(=O)c2cc(NS(C)(=O)=O)ccc21 [N-{3-[2-(4-Fluoro-benzyl)-5-hydroxy-3-oxo-6-thiophen-2-yl-2,3-dihydro-pyridazin-4-yl]-4-methyl-1,1-dioxo-1,4-dihydro-1λ^6-benzo[1,2,4]thiadiazin-7-yl}-methanesulfonamide]
3 | 1000 to 10000 | CN(c1ccc2c(c1)S(=O)(=O)NC(c1c(O)c(CC(C)(C)C)nn(CC3CCC3)c1=O)=N2)S(C)(=O)=O [N-{3-[2-Cyclobutylmethyl-6-(2,2-dimethyl-propyl)-5-hydroxy-3-oxo-2,3-dihydro-pyridazin-4-yl]-1,1-dioxo-1,2-dihydro-1λ^6-benzo[1,2,4]thiadiazin-7-yl}-N-methyl-methanesulfonamide]
4 | 100 to 1000 | CCCC(C)n1nc(-c2cccs2)c(O)c(C2=NS(=O)(=O)c3cc(NS(C)(=O)=O)ccc3N2)c1=O (stereo not shown) [N-{3-[5-Hydroxy-2-(1-methyl-butyl)-3-oxo-6-thiophen-2-yl-2,3-dihydro-pyridazin-4-yl]-1,1-dioxo-1,2-dihydro-1λ^6-benzo[1,2,4]thiadiazin-7-yl}-methanesulfonamide]
5 | < 100 | COCCn1nc(-c2cccs2)c(O)c(C2=NS(=O)(=O)c3cc(NS(C)(=O)=O)ccc3N2)c1=O [N-{3-[5-Hydroxy-2-(2-methoxy-ethyl)-3-oxo-6-thiophen-2-yl-2,3-dihydro-pyridazin-4-yl]-1,1-dioxo-1,2-dihydro-1λ^6-benzo[1,2,4]thiadiazin-7-yl}-methanesulfonamide]
6 | < 100 | COC(C)(C)CCn1nc(-c2cccs2)c(O)c(C2=NS(=O)(=O)c3cc(NS(C)(=O)=O)ccc3N2)c1=O [N-{3-[5-Hydroxy-2-(3-methoxy-3-methyl-butyl)-3-oxo-6-thiophen-2-yl-2,3-dihydro-pyridazin-4-yl]-1,1-dioxo-1,2-dihydro-1λ^6-benzo[1,2,4]thiadiazin-7-yl}-methanesulfonamide]
7 | < 100 | CC(C)CCn1nc(-c2cc[nH]c2)c(O)c(C2=Nc3ccc(NS(C)(=O)=O)cc3S(=O)(=O)N2)c1=O [N-{3-[5-Hydroxy-2-(3-methyl-butyl)-3-oxo-6-(1H-pyrrol-3-yl)-2,3-dihydro-pyridazin-4-yl]-1,1-dioxo-1,2-dihydro-1λ^6-benzo[1,2,4]thiadiazin-7-yl}-methanesulfonamide]
8 | 100 to 1000 | C/C(=C\c1nn(CCC(C)C)c(=O)c(C2=NS(=O)(=O)c3cc(NS(C)(=O)=O)ccc3N2)c1O)C(F)(F)F [N-{3-[5-Hydroxy-2-(3-methyl-butyl)-3-oxo-6-(3,3,3-trifluoro-2-methyl-propenyl)-2,3-dihydro-pyridazin-4-yl]-1,1-dioxo-1,2-dihydro-1λ^6-benzo[1,2,4]thiadiazin-7-yl}-methanesulfonamide]
9 | 1000 to 10000 | CC(C)CCn1nc(-c2ccccc2)c(O)c(C2=Nc3ccc(N(C)S(C)(=O)=O)cc3S(=O)(=O)N2)c1=O [N-{3-[5-Hydroxy-2-(3-methyl-butyl)-3-oxo-6-phenyl-2,3-dihydro-pyridazin-4-yl]-1,1-dioxo-1,2-dihydro-1λ^6-benzo[1,2,4]thiadiazin-7-yl}-N-methyl-methanesulfonamide]
10 | < 100 | CC(C)CCn1nc(-c2ccccc2)c(O)c(C2=Nc3ccc(NS(C)(=O)=O)cc3S(=O)(=O)N2)c1=O [N-{3-[5-Hydroxy-2-(3-methyl-butyl)-3-oxo-6-phenyl-2,3-dihydro-pyridazin-4-yl]-1,1-dioxo-1,2-dihydro-1λ^6-benzo[1,2,4]thiadiazin-7-yl}-methanesulfonamide]
11 | < 100 | CC(C)CCn1nc(-c2cncs2)c(O)c(C2=NS(=O)(=O)c3cc(NS(C)(=O)=O)ccc3N2)c1=O [N-{3-[5-Hydroxy-2-(3-methyl-butyl)-3-oxo-6-thiazol-5-yl-2,3-dihydro-pyridazin-4-yl]-1,1-dioxo-1,2-dihydro-1λ^6-benzo[1,2,4]thiadiazin-7-yl}-methanesulfonamide]
12 | 1000 to 10000 | CC(C)CCn1nc(-c2cccs2)c(O)c(C2=Nc3ccc(N(C(C)C)S(C)(=O)=O)cc3S(=O)(=O)N2)c1=O [N-{3-[5-Hydroxy-2-(3-methyl-butyl)-3-oxo-6-thiophen-2-yl-2,3-dihydro-pyridazin-4-yl]-1,1-dioxo-1,2-dihydro-1λ^6-benzo[1,2,4]thiadiazin-7-yl}-N-isopropyl-methanesulfonamide]
13 | 1000 to 10000 | CC(C)CCn1nc(-c2cccs2)c(O)c(C2=NS(=O)(=O)c3cc(N(C)S(C)(=O)=O)ccc3N2C)c1=O [N-{3-[5-Hydroxy-2-(3-methyl-butyl)-3-oxo-6-thiophen-2-yl-2,3-dihydro-pyridazin-4-yl]-4-methyl-1,1-dioxo-1,4-dihydro-1λ^6-benzo[1,2,4]thiadiazin-7-yl}-N-methyl-methanesulfonamide]
14 | < 100 | CC(C)CCn1nc(-c2ccn(C)c2)c(O)c(C2=Nc3ccc(NS(C)(=O)=O)cc3S(=O)(=O)N2)c1=O [N-{3-[5-Hydroxy-2-(3-methyl-butyl)-6-(1-methyl-1H-pyrrol-3-yl)-3-oxo-2,3-dihydro-pyridazin-4-yl]-1,1-dioxo-1,2-dihydro-1λ^6-benzo[1,2,4]thiadiazin-7-yl}-methanesulfonamide]
15 | < 100 | CC(C)=Cc1nn(CCC(C)C)c(=O)c(C2=NS(=O)(=O)c3cc(NS(C)(=O)=O)ccc3N2)c1O [N-{3-[5-Hydroxy-2-(3-methyl-butyl)-6-(2-methyl-propenyl)-3-oxo-2,3-dihydro-pyridazin-4-yl]-1,1-dioxo-1,2-dihydro-1λ^6-benzo[1,2,4]thiadiazin-7-yl}-methanesulfonamide]
16 | < 100 | CCC(C)CCn1nc(-c2cccs2)c(O)c(C2=NS(=O)(=O)c3cc(NS(C)(=O)=O)ccc3N2)c1=O (stereo not shown) [N-{3-[5-Hydroxy-2-(3-methyl-pentyl)-3-oxo-6-thiophen-2-yl-2,3-dihydro-pyridazin-4-yl]-1,1-dioxo-1,2-dihydro-1λ^6-benzo[1,2,4]thiadiazin-7-yl}-methanesulfonamide]
17 | < 100 | CN(c1ccc2c(c1)S(=O)(=O)NC(c1c(O)c(-c3cccs3)nn(CC3(C(F)(F)F)CC3)c1=O)=N2)S(C)(=O)=O [N-{3-[5-Hydroxy-3-oxo-6-thiophen-2-yl-2-(1-trifluoromethyl-cyclopropylmethyl)-2,3-dihydro-pyridazin-4-yl]-1,1-dioxo-1,2-dihydro-1λ^6-benzo[1,2,4]thiadiazin-7-yl}-N-methyl-methanesulfonamide]
18 | < 100 | CS(=O)(=O)Nc1ccc2c(c1)S(=O)(=O)N=C(c1c(O)c(-c3cccs3)nn(CC3(C(F)(F)F)CC3)c1=O)N2 [N-{3-[5-Hydroxy-3-oxo-6-thiophen-2-yl-2-(1-trifluoromethyl-cyclopropylmethyl)-2,3-dihydro-pyridazin-4-yl]-1,1-dioxo-1,2-dihydro-1λ^6-benzo[1,2,4]thiadiazin-7-yl}-methanesulfonamide]
19 | 100 to 1000 | CCC(C)(C)c1nn(CCC(C)C)c(=O)c(C2=NS(=O)(=O)c3cc(NS(C)(=O)=O)ccc3N2)c1O [N-{3-[6-(1,1-Dimethyl-propyl)-5-hydroxy-2-(3-methyl-butyl)-3-oxo-2,3-dihydro-pyridazin-4-yl]-1,1-dioxo-1,2-dihydro-1λ^6-benzo[1,2,4]thiadiazin-7-yl}-methanesulfonamide]
20 | 100 to 1000 | CC(C)CCn1nc(CCC2OCCCO2)c(O)c(C2=Nc3ccc(NS(C)(=O)=O)cc3S(=O)(=O)N2)c1=O [N-{3-[6-(2-[1,3]Dioxan-2-yl-ethyl)-5-hydroxy-2-(3-methyl-butyl)-3-oxo-2,3-dihydro-pyridazin-4-yl]-1,1-dioxo-1,2-dihydro-1λ^6-benzo[1,2,4]thiadiazin-7-yl}-methanesulfonamide]
21 | 100 to 1000 | CC(C)CCn1nc(CC2CCC2)c(O)c(C2=NS(=O)(=O)c3cc(NS(C)(=O)=O)ccc3N2)c1=O [N-{3-[6-Cyclobutylmethyl-5-hydroxy-2-(3-methyl-butyl)-3-oxo-2,3-dihydro-pyridazin-4-yl]-1,1-dioxo-1,2-dihydro-1λ^6-bnezo[1,2,4]thiadiazin-7-yl}-methanesulfonamide]
22 | < 100 | CC(C)CCn1nc(C2=CCCC2)c(O)c(C2=NS(=O)(=O)c3cc(NS(C)(=O)=O)ccc3N2)c1=O [N-{3-[6-Cyclopent-1-enyl-5-hydroxy-2-(3-methyl-butyl)-3-oxo-2,3-dihydro-pyridazin-4-yl]-1,1-dioxo-1,2-dihydro-1λ^6-benzo[1,2,4]thiadiazin-7-yl}-methanesulfonamide]
23 | 100 to 1000 | CC(C)CCn1nc(CC2=CCCC2)c(O)c(C2=NS(=O)(=O)c3cc(NS(C)(=O)=O)ccc3N2)c1=O [N-{3-[6-Cyclopent-1-enylmethyl-5-hydroxy-2-(3-methyl-butyl)-3-oxo-2,3-dihydro-pyridazin-4-yl]-1,1-dioxo-1,2-dihydro-1λ^6-benzo[1,2,4]thiadiazin-7-yl}-methanesulfonamide]
24 | 100 to 1000 | CC(C)(C)c1nn(Cc2ccc(F)c(Cl)c2)c(=O)c(C2=Nc3ccc(NS(C)(=O)=O)cc3S(=O)(=O)N2)c1O [N-{3-[6-tert-Butyl-2-(3-chloro-4-fluoro-benzyl)-5-hydroxy-3-oxo-2,3-dihydro-pyridazin-4-yl]-1,1-dioxo-1,2-dihydro-1λ^6-benzo[1,2,4]thiadiazin-7-yl}-methanesulfonamide]
25 | < 100 | CCCS(=O)(=O)Nc1ccc2c(c1)S(=O)(=O)NC(c1c(O)c(-c3cncs3)nn(CCC(C)C)c1=O)=N2 [Propane-1-sulfonic acid {3-[5-hydroxy-2-(3-methyl-butyl)-3-oxo-6-thiazol-5-yl-2,3-dihydro-pyridazin-4-yl]-1,1-dioxo-1,2-dihydro-1λ^6-benzo[1,2,4]thiadiazin-7-yl}-amide]
